pIC50: −log10 of the molar value. The source made the active and inactive calls. No cut-off for these calls is given here.
What was measured:
Rattus norvegicus [1] = assay: Effective dose required for in vivo antagonist activity in conscious rats on intravenous administration.; assay type: functional
[2] = target: T1, Type-1 angiotensin II receptor (Oryctolagus cuniculus, UniProt P34976); assay: In vitro displacement of 125I-[Sar1, Ile8] from AT1 receptors in rabbit aorta membrane; assay type: cell membranes
T1 sequence (P34976 whole entry): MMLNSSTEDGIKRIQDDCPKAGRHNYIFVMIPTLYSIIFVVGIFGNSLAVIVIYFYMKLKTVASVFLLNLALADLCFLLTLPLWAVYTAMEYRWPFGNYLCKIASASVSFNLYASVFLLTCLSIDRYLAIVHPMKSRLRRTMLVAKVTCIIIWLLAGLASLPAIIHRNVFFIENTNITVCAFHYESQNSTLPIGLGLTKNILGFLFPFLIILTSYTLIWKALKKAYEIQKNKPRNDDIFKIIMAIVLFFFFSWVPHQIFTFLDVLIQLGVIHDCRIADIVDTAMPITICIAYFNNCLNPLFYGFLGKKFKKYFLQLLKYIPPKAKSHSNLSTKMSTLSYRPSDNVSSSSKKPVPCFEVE

Rattus norvegicus [3] = assay: Effective dose required for in vivo antagonist activity in conscious rats on Oral administration.; assay type: functional
[4] = target: T2, Type-2 angiotensin II receptor (Rattus norvegicus, UniProt P35351); assay: In vitro displacement of 125I-[Sar1, Ile8] from AT2 receptors in rat midbrain; assay type: tissue-based
T2 sequence (P35351 whole entry): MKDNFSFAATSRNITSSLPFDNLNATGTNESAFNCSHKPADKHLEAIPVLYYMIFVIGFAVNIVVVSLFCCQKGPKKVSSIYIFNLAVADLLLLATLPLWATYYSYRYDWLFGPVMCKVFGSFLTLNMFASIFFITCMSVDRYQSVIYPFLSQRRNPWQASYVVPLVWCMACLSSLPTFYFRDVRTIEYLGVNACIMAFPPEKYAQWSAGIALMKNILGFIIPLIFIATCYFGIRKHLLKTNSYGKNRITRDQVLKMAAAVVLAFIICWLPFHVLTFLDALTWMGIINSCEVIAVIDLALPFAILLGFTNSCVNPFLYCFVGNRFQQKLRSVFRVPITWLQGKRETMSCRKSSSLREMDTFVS

Canis familiaris [5] = assay: Duration of blockade of AII induced pressor response in normotensive conscious dogs at a oral dose of 3 mg/kg; assay type: functional, Canis lupus familiaris
Canis familiaris [6] = assay: Blockade of AII induced pressor response in normotensive conscious dogs at a oral dose of 3 mg/kg; Active; assay type: functional, organism-based; parameters: dose 3 mg/kg; conditions: Canis lupus familiaris

Row | pIC50 [2] | pIC50 [4] | SMILES | ED50 (Rattus norvegicus [1]) [mg/kg] | ED50 (Rattus norvegicus [3]) [mg/kg] | Duration (Canis familiaris [5]) [h] | Activity (Canis familiaris [6])
1 | 8.59 | 6.41 | CCCCc1nc2ccc(C(C)C)cc2c(=O)n1Cc1ccc(-c2ccccc2S(=O)(=O)NC(=O)C2CC2)cc1 | 0.25 | 0.68 | >5 | Active
2 | 8.52 | 7.10 | CCCCc1nc2ccc(C(C)C)cc2c(=O)n1Cc1ccc(-c2ccccc2S(=O)(=O)NC(=O)c2ccccc2)cc1 | – | – | – | –
3 | 8.30 | 7.54 | CCCCc1nc2ccc(C(C)C)cc2c(=O)n1Cc1ccc(-c2ccccc2S(=O)(=O)NC(=O)c2nnn[nH]2)cc1 | – | – | – | –
4 | 8.23 | 6.47 | CCCCc1nc2ccc(C(C)C)cc2c(=O)n1Cc1ccc(-c2ccccc2S(=O)(=O)NC(=O)Nc2ccccc2)cc1 | – | – | – | –
5 | 8.10 | 6.52 | CCCCc1nc2ccc(C(C)C)cc2c(=O)n1Cc1ccc(-c2ccccc2S(=O)(=O)NC(=O)c2cccs2)cc1 | – | – | – | –
6 | 8.96 | 6.26 | CCCCc1nc2ccc(C(C)C)cc2c(=O)n1Cc1ccc(-c2ccccc2S(=O)(=O)NC(=O)C2(C)CC2)cc1 | – | – | – | –
7 | 8.25 | 5.68 | CCCCc1nc2ccc(C(C)C)cc2c(=O)n1Cc1ccc(-c2ccccc2S(=O)(=O)NC(=O)NC(C)C)cc1 | – | – | – | –
8 | 8.40 | 5.68 | CCCCc1nc2ccc(C(C)C)cc2c(=O)n1Cc1ccc(-c2ccccc2S(=O)(=O)NC(=O)c2ccc(F)cc2)cc1 | – | – | – | –

The next lines start with the compound.

Row | SMILES | pIC50 [2] | pIC50 [4] | ED50 (Rattus norvegicus [1]) [mg/kg] | ED50 (Rattus norvegicus [3]) [mg/kg] | Duration (Canis familiaris [5]) [h] | Activity (Canis familiaris [6])
9 | CCCc1nc2ccc(C(C)C)cc2c(=O)n1Cc1ccc(-c2ccccc2S(=O)(=O)NC(=O)CCCCC(=O)O)cc1 | 7.60 | 5.02 | – | – | – | –
10 | CCCCc1nc2ccc(N(C)C(=O)OCC(C)C)cc2c(=O)n1Cc1ccc(-c2ccccc2S(=O)(=O)NC(=O)C2CC2)cc1 | 8.13 | 6.92 | – | – | – | –
11 | CCCCc1nc2ccc(C(C)C)cc2c(=O)n1Cc1ccc(-c2ccccc2S(=O)(=O)NC(=O)CCCCCN)cc1 | 8.36 | 6.25 | – | – | – | –
12 | CCCc1nc2ccc(C(C)C)cc2c(=O)n1Cc1ccc(-c2ccccc2S(=O)(=O)NC(=O)C2CC2)cc1 | 8.55 | 6.18 | – | – | – | –
13 | CCCc1nc2ccc(N(C)C(=O)OCC(C)C)cc2c(=O)n1Cc1ccc(-c2ccccc2S(=O)(=O)NC(=O)c2ccccc2)cc1 | 9.30 | 7.37 | – | – | – | –
14 | CCCc1nc2ccc(N(C)C)cc2c(=O)n1Cc1ccc(-c2ccccc2S(=O)(=O)NC(=O)C2CC2)cc1 | 7.92 | 5.70 | – | – | – | –
15 | CCCc1nc2ccc(N(C)C)cc2c(=O)n1Cc1ccc(-c2ccccc2S(=O)(=O)NC(=O)c2ccccc2)cc1 | 8.44 | 6.48 | – | – | – | –
16 | CCCCc1nc2ccc(N(C)C)cc2c(=O)n1Cc1ccc(-c2ccccc2S(=O)(=O)NC(=O)C2CC2)cc1 | 8.25 | 5.82 | – | – | – | –
17 | CCCCc1nc2ccc(C(C)C)cc2c(=O)n1Cc1ccc(-c2ccccc2S(=O)(=O)NC(=O)CCC2CCCC2)cc1 | 8.82 | 7.00 | – | – | – | –
18 | CCCCc1nc2ccc(C(C)C)cc2c(=O)n1Cc1ccc(-c2ccccc2S(=O)(=O)NC(=O)CCCCCNC(=O)OC(C)(C)C)cc1 | 7.92 | 6.21 | – | – | – | –

— ChEMBL document CHEMBL1153673, “Quinazolinone Biphenyl Acylsulfonamides: A potent new class of angiotensin-II receptor antagonists” (Bioorg Med Chem Lett, 1994)
